Earlier results in article PMC7211195 (Investigational New Drugs, 2019).

How the values were obtained:
[1] = set-up: method as in PMID 19056914; settings: cited from earlier work
[2] = cited from earlier work

CS(=O)(=O)CCNCc1ccc(-c2ccc3ncnc(Nc4ccc(OCc5cccc(F)c5)c(Cl)c4)c3c2)o1 [lapatinib, N-{3-Chloro-4-[(3-fluorobenzyl)oxy]phenyl}-6-[5-({[2-(methylsulfonyl)ethyl]amino}methyl)-2-furyl]-4-quinazolinamine]
Kp,BT ([1]; WT mice, 24-h intravenous administration): 0.04
Kp,BT times greater than in WT mice ([1]; mdr1a/b(−/−)/bcrp(−/−) mice): 40 times
binds with plasma proteins [2]: 99%
